Data published in patent US20210038587A1, “METHODS AND COMPOSITIONS FOR TREATING NON-ERK MAPK PATHWAY INHIBITOR-RESISTANT CANCERS” (BIOMED VALLEY DISCOVERIES, INC., priority 2013, published 2021).

Legend:
[1] = tested on: A375, MIAPaCa-2, HCT116, Colo205, HT-29, and AN3Ca cells; test: Reverse Phase Protein Analysis (RPPA), all six cell lines; format: cell-based; settings: 10 μM, 6 hours
Experimental: Control wells were treated with DMSO at 0.1% (v/v) for 6 hours prior to cell lysate generation. Samples were then analyzed using reverse-phase protein microarray technology (Theranostics Health).
Cell lines with common alterations in BRAF and RAS were assayed: BRAF^V600E mutant lines A375, Colo205, and HT29; KRAS^G12C-mutant cell line MIAPACa-2; KRAS^G13D-mutant cell line HCT116; and AN3Ca with atypical HRAS^F82L mutation. Changes in protein levels are shown as a percentage change from dimethyl sulfoxide (DMSO)-treated parental control (FIG. 32A and Table 23).

HCT116 = test: Reverse Phase Protein Analysis (RPPA); format: cell-based, human; settings: % change from DMSO (matched cell line)
Outline: (§1)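 Cells were treated 6 h before lysis, with 0.1% (v/v) DMSO as control. Lysates were analysed by reverse-phase protein microarray. Protein changes are expressed as percentage change from DMSO-treated parental cells.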

A375 = test: Reverse Phase Protein Analysis (RPPA); format: cell-based, human; settings: % change from DMSO (matched cell line)
Outline: as §1

Colo205 = test: Reverse Phase Protein Analysis (RPPA); format: cell-based, human; settings: % change from DMSO (matched cell line)
MIAPaCa-2 = test: Reverse Phase Protein Analysis (RPPA); format: cell-based; settings: MIAPaca2; % change from DMSO (matched cell line)

Compound: O=C(Nc1ccc2[nH]nc(-c3ccncc3)c2c1)[C@@H]1CCN(CC(=O)N2CCN(c3ccc(-c4ncccn4)cc3)CC2)C1 [SCH772984]
- pERK1/2 (ERK1/2-T202, -Y204) [1]: inhibited pERK1/2 in all cell lines
- Avg (4ebp1 T70) (HCT116): 5.6%
- Avg (Akt S473) (HCT116): −8.76%
- Avg (Akt) (HCT116): −9.86%
- Avg (Bad S136) (HCT116): −10.55%
- Avg (Bad S155) (HCT116): −22.96%
- Avg (Bak) (HCT116): −4.66%
- Avg (Bax) (HCT116): −13.86%
- Avg (Bcl 2) (HCT116): −10.58%
- Avg (Bcl2 S70) (HCT116): −18.34%
- Avg (Bcl 2 T56) (HCT116): −15.89%
- Avg (Bim) (HCT116): 1.95%
- Avg (CREB S133) (HCT116): −24.18%
- Avg (Caspase 3 CL D175) (HCT116): −4.63%
- Avg (Caspase 7 Cl D198) (HCT116): −16.35%
- Avg (Chk1) (HCT116): −5.58%
- Avg (Chk1 S345) (HCT116): −18.51%
- Avg (Cyclin D1) (HCT116): −73.21%
- Avg (ERK 1 2) (HCT116): −10.22%
- Avg (ERK 1 2 T202 Y204) (HCT116): −75.21%
- Avg (MAK1 S360) (HCT116): −15.32%
- Avg (Mcl1) (HCT116): −6.55%
- Avg (Raptor S792) (HCT116): −18.18%
- Avg (Raptor) (HCT116): −9.66%
- Avg (Rictor) (HCT116): −18.5%
- Avg (Stat1) (HCT116): −10.74%
- Avg (Stat3) (HCT116): −7.67%
- Avg (bad S112) (HCT116): −31.29%
- Avg (c Fos) (HCT116): −15.27%
- Avg (c Myc) (HCT116): −12.86%
- Avg (mTOR S2448) (HCT116): −16.05%
- Avg (mTOR S2481) (HCT116): −22.53%
- Avg (mTOR) (HCT116): −12.56%
- Avg (p70 S6 Kinase) (HCT116): −14.12%
- Avg (p90 RSK S380) (HCT116): −33.7%
- Avg(S6 Ribo Prot S235 236) (HCT116): −93.86%
- Avg(S6 Ribo Prot S240 244) (HCT116): −91.07%
- Avg(Tuberin TSC2 Y1571) (HCT116): −16.17%
- Avg(p70 S6 Kinase S371 S394) (HCT116): −12.3%
- Avg(p70 S6 Kinase T389 T412) (HCT116): −24.63%
- Avg (4ebp1 T70) (A375): −31.75%
- Avg (Akt S473) (A375): 58.13%
- Avg (Akt) (A375): −23.26%
- Avg (Bad S136) (A375): 5.32%
- Avg (Bad S155) (A375): −13.86%
- Avg (Bak) (A375): −2.37%
- Avg (Bax) (A375): −17.32%
- Avg (Bcl 2) (A375): −18.53%
- Avg (Bcl2 S70) (A375): −12.91%
- Avg (Bcl 2 T56) (A375): −19.55%
- Avg (Bim) (A375): 17.52%
- Avg (CREB S133) (A375): −1.55%
- Avg (Caspase 3 CL D175) (A375): −9.87%
- Avg (Caspase 7 Cl D198) (A375): −6%
- Avg (Chk1) (A375): 2.83%
- Avg (Chk1 S345) (A375): −10.59%
- Avg (Cyclin D1) (A375): −84.05%
- Avg (ERK 1 2) (A375): −21.65%
- Avg (ERK 1 2 T202 Y204) (A375): −90.63%
- Avg (MAK1 S360) (A375): 0.97%
- Avg (Mcl1) (A375): 2.11%
- Avg (Raptor S792) (A375): −6.89%
- Avg (Raptor) (A375): −11.66%
- Avg (Rictor) (A375): −22.13%
- Avg (Stat1) (A375): −6.01%
- Avg (Stat3) (A375): −1.42%
- Avg (bad S112) (A375): −71.44%
- Avg (c Fos) (A375): −12.51%
- Avg (c Myc) (A375): 1.86%
- Avg (mTOR S2448) (A375): −26.17%
- Avg (mTOR S2481) (A375): −15.82%
- Avg (mTOR) (A375): −5.18%
- Avg (p70 S6 Kinase) (A375): −17.66%
- Avg (p90 RSK S380) (A375): −72.44%
- Avg(S6 Ribo Prot S235 236) (A375): −94.71%
- Avg(S6 Ribo Prot S240 244) (A375): −91.78%
- Avg(Tuberin TSC2 Y1571) (A375): −13.7%
- Avg(p70 S6 Kinase S371 S394) (A375): −28.72%
- Avg(p70 S6 Kinase T389 T412) (A375): −42.73%
- Avg (4ebp1 T70) (Colo205): −27.51%
- Avg (Akt S473) (Colo205): −1.74%
- Avg (Akt) (Colo205): −10.31%
- Avg (Bad S136) (Colo205): 1.88%
- Avg (Bad S155) (Colo205): −10.96%
- Avg (Bak) (Colo205): 4.59%
- Avg (Bax) (Colo205): −6.44%
- Avg (Bcl 2) (Colo205): −14.56%
- Avg (Bcl2 S70) (Colo205): −18.52%
- Avg (Bcl 2 T56) (Colo205): −6.73%
- Avg (Bim) (Colo205): 29.22%
- Avg (CREB S133) (Colo205): −14.56%
- Avg (Caspase 3 CL D175) (Colo205): 14.08%
- Avg (Caspase 7 Cl D198) (Colo205): 12.36%
- Avg (Chk1) (Colo205): 7.49%
- Avg (Chk1 S345) (Colo205): 1%
- Avg (Cyclin D1) (Colo205): −36.7%
- Avg (ERK 1 2) (Colo205): −31.87%
- Avg (ERK 1 2 T202 Y204) (Colo205): −91.43%
- Avg (MAK1 S360) (Colo205): 7.54%
- Avg (Mcl1) (Colo205): −0.14%
- Avg (Raptor S792) (Colo205): −4.17%
- Avg (Raptor) (Colo205): −2.2%
- Avg (Rictor) (Colo205): −19.07%
- Avg (Stat1) (Colo205): −4.31%
- Avg (Stat3) (Colo205): −6.1%
- Avg (bad S112) (Colo205): −29.4%
- Avg (c Fos) (Colo205): −15.17%
- Avg (c Myc) (Colo205): −0.64%
- Avg (mTOR S2448) (Colo205): −9.44%
- Avg (mTOR S2481) (Colo205): −6.68%
- Avg (mTOR) (Colo205): −5.62%
- Avg (p70 S6 Kinase) (Colo205): −2.85%
- Avg (p90 RSK S380) (Colo205): −62.31%
- Avg(S6 Ribo Prot S235 236) (Colo205): −94.67%
- Avg(S6 Ribo Prot S240 244) (Colo205): −95.09%
- Avg(Tuberin TSC2 Y1571) (Colo205): −1.38%
- Avg(p70 S6 Kinase S371 S394) (Colo205): −14.59%
- Avg(p70 S6 Kinase T389 T412) (Colo205): −30.4%
- Avg (4ebp1 T70) (MIAPaCa-2): 19.27%
- Avg (Akt S473) (MIAPaCa-2): 2.84%
- Avg (Akt) (MIAPaCa-2): 13.47%
- Avg (Bad S136) (MIAPaCa-2): 8.62%
- Avg (Bad S155) (MIAPaCa-2): −1.71%
- Avg (Bak) (MIAPaCa-2): −10.88%
- Avg (Bax) (MIAPaCa-2): 15.67%
- Avg (Bcl 2) (MIAPaCa-2): 4.96%
- Avg (Bcl2 S70) (MIAPaCa-2): −4.23%
- Avg (Bcl 2 T56) (MIAPaCa-2): −1.98%
- Avg (Bim) (MIAPaCa-2): 2.08%
- Avg (CREB S133) (MIAPaCa-2): −6.63%
- Avg (Caspase 3 CL D175) (MIAPaCa-2): 21.05%
- Avg (Caspase 7 Cl D198) (MIAPaCa-2): 8.35%
- Avg (Chk1) (MIAPaCa-2): 12.07%
- Avg (Chk1 S345) (MIAPaCa-2): 13.39%
- Avg (Cyclin D1) (MIAPaCa-2): −39.88%
- Avg (ERK 1 2) (MIAPaCa-2): −23.09%
- Avg (ERK 1 2 T202 Y204) (MIAPaCa-2): −76.71%
- Avg (MAK1 S360) (MIAPaCa-2): 2.74%
- Avg (Mcl1) (MIAPaCa-2): −1.88%
- Avg (Raptor S792) (MIAPaCa-2): 4.43%
- Avg (Raptor) (MIAPaCa-2): 17.66%
- Avg (Rictor) (MIAPaCa-2): −15.15%
- Avg (Stat1) (MIAPaCa-2): 7.17%
- Avg (Stat3) (MIAPaCa-2): −9.19%
- Avg (bad S112) (MIAPaCa-2): −33.07%
- Avg (c Fos) (MIAPaCa-2): −8.99%
- Avg (c Myc) (MIAPaCa-2): 2.11%
- Avg (mTOR S2448) (MIAPaCa-2): −11.48%
- Avg (mTOR S2481) (MIAPaCa-2): 2.43%
- Avg (mTOR) (MIAPaCa-2): 1.64%
- Avg (p70 S6 Kinase) (MIAPaCa-2): −7.51%
- Avg (p90 RSK S380) (MIAPaCa-2): −38.58%
- Avg(S6 Ribo Prot S235 236) (MIAPaCa-2): −77.57%
- Avg(S6 Ribo Prot S240 244) (MIAPaCa-2): −86.61%
- Avg(Tuberin TSC2 Y1571) (MIAPaCa-2): 8.86%
- Avg(p70 S6 Kinase S371 S394) (MIAPaCa-2): −40.47%
- Avg(p70 S6 Kinase T389 T412) (MIAPaCa-2): −50.97%
